Measurements reported in patent US7744927B2, “Methods of promoting hematopoietic and mesenchymal cell proliferation and differentiation” (University of Southern California, priority 1997, dated 2010).

Key:
rabbit corneal eye = settings: in vivo; cited from earlier work
[1] = tested on: cultured cells that are involved in wound repair; settings: cited from earlier work
murine HPC [2] = test: Murine HPC colony formation in the absence of colony stimulating factors; type: cell-based, C57B1/6 mice; settings: 14 days
Experimental: HPC were harvested from C57B1/6 mice by immunomagnetic affinity chromatography and placed in semi-solid cultures with optimal growth medium in the absence of colony stimulating factors. At various times after initiation of culture, the formation of colonies and the size of the colonies (number of cells/colony) was assessed microscopically.
(§1) Female C57B1/6 mice were purchased from Simonson and used as a source of bone marrow cells in this study. The bone marrow was harvested from the femur and tibia of mice by flushing with phosphate buffered saline (PBS), pH 7.4, containing 2% fetal bovine serum (FBS) with a 21-gauge needle. The eluant from the flushing was centrifuged and the pellet was resuspended at 4×10^7 nucleated cells/ml in PBS containing PBS containing 2% FBS and 5% normal rat serum.
The reagents for immunomagnetic labeling were purchased from Stem Cell Technologies, Inc. (Vancouver, BC). Biotin-labeled monoclonal antibodies to the following murine lineage-specific cell surface antigens were included in a cocktail for HPC enrichment and used according to the manufacturer's instructions: CD5 (Ly-1), CD45-R (B220), CD11b (Mac-1), Myeloid Differentiation Antigen (Gr-1) and Erythroid Cells (TER 119) Ten μl of antibody cocktail was added to the bone marrow, mixed and allowed to incubate at 4° C. for 15 minutes. […]

murine HPC [3] = test: Murine HPC colony formation in semi-solid culture with colony stimulating factors; type: cell-based, C57B1/6 mice; settings: for macroscopic colonies: day 14, enriched HPC from untreated (normal) mice
Experimental: HPC were harvested from C57B1/6 mice by immunomagnetic affinity chromatography and placed in semi-solid cultures with optimal growth medium. At various times after initiation of culture, the formation of colonies and the size of the colonies (number of cells/colony) was assessed microscopically.
as §1, with “harvested, either from untreated mice or from mice injected with 5-fluorouracil (5-FU) (3 mg/mouse; approximately 150 mg/kg) in the tail vein 48 hours before harvest,” for “harvested”
The reagents for immunomagnetic labeling were purchased from Stem Cell Technologies, Inc. (Vancouver, BC). Biotin-labeled monoclonal antibodies to the following murine lineage-specific cell surface antigens were included in a cocktail for HPC enrichment and used according to the manufacturer's instructions: CD5 (Ly-1), CD45-R (B220), CD11b (Mac-1), Myeloid Differentiation Antigen (Gr-1) and Erythroid Cells (TER 119) Ten μl of antibody cocktail was added for each of the 2 sets of bone marrow (normal and 5-FU-treated), mixed and allowed to incubate at 4° C. for 15 minutes. The cells were then resuspended at 4×10^7 cells/ml in PBS containing 2% FBS. The antibody cocktail was then washed out and 100 μl anti-biotin tetramer was added for each ml of cells. The suspension was mixed and incubated at 4° C. for 15 minutes. Sixty μl of magnetic colloid was then added for each ml of cells, the combination was mixed and incubated at 4° C. for 15 minutes to yield the immunomagnetically-labeled bone marrow cells.
A column containing a stainless steel matrix was prepared by washing the matrix with PBS followed by washing with PBS containing 2% protein. […]

For “Asp-Arg-Val-Tyr-Ile-His-Pro-Phe [AII, known pressor agent, commercially available]”, the angiogenic activity (rabbit corneal eye) is given as “angiogenic”, the mitogenesis and chemotaxis [1] is given as “increases mitogenesis and chemotaxis” and the “HPC colony size / HPC proliferation” value (murine HPC [2]) is given as “HPC colony size increases proportionately”. For the same substance, the “HPC colony size / HPC proliferation” value (murine HPC [3]; 0 to 100 μg/ml, normal and 5-FU treated bone marrow) was “HPC colony size increases proportionately”, the macroscopic colonies (murine HPC [3]; 10 μg/ml) was 18 and the macroscopic colonies (murine HPC [3]; 100 μg/ml) was 10.
